Data taken from patent US12226424B2, “Target protein degradation compounds, their anti-tumor use, their intermediates and use of intermediates” (ShanghaiTech University, priority 2018, dated 2025).
Where two headings read alike, the source gives them in different places.

How the values were obtained:
[1] = test system: CDK4/6 protein; experiment: Western-blot determination of CDK4/6 protein degradation (DC50) in Jurkat cells; type: cell-based; conditions: read-out: DC50(nM)/Jurkat cell line
[2] = test system: CDK4/6 protein; experiment: Western-blot determination of CDK4/6 protein degradation (DC50) in T-47D cells; type: cell-based, human; conditions: 24 h drug treatment, read-out: DC50(nM)/T-47D cell line
[3] = target: T1, BRD2 (Homo sapiens, UniProt P25440); experiment: Western-blot half-degradation concentration (DC50) / degradation of BRD2 in MV-4-11 cells; type: cell-based; conditions: 24 hours
T1 sequence (P25440 whole entry): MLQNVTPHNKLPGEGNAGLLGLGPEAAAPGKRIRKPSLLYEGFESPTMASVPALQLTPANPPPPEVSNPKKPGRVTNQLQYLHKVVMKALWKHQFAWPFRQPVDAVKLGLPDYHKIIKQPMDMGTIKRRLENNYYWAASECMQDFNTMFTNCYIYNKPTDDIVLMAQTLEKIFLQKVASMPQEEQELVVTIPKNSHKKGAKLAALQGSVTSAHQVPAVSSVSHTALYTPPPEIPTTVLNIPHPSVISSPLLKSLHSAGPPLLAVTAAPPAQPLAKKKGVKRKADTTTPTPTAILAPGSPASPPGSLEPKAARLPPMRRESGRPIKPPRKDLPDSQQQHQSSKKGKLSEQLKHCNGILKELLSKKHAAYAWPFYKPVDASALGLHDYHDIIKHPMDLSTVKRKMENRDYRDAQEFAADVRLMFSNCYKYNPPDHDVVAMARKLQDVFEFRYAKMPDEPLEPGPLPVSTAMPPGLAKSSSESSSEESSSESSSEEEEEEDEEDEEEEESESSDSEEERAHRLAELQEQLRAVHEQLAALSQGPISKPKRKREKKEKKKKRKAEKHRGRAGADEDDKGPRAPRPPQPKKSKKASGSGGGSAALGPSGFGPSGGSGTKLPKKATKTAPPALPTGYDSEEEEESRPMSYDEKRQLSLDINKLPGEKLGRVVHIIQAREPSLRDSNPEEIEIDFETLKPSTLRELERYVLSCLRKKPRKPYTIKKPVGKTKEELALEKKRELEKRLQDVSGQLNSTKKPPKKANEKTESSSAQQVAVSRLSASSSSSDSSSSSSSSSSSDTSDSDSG
Source text: (§1) Western-Blot Determination of the Half-Degradation Concentration (DC50) of the PROTAD Compounds on the Target Proteins
(§2) The supernatant was aspirated as total cell protein extracted.

[4] = target: T1, BRD2; experiment: Western-blot detection of BRD2 protein degradation (FIGS. 16a-c); type: cell-based
[5] = target: T2, BRD4 (Homo sapiens, UniProt O60885); experiment: Western-blot detection of BRD4 protein degradation (FIGS. 16a-c); type: cell-based
[6] = target: T2, BRD4; experiment: Western-blot degradation of BRD4 in MV-4-11 cells; type: cell-based; conditions: 24 hours
Source text: as §1, §2

[7] = test system: MDA-MB-231 cells; experiment: Half inhibitory concentration (IC50) on BET-expressing tumor cells, CCK-8, MDA-MB-231; type: cell-based; conditions: Homo sapiens, 48/72 h, read-out: IC50 (nM)/MDA-MB-231 cell line
Procedure, shortened: (§3)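 Cells treated for 48/72 h with ten 5-fold dilutions from 10 μM top, DMSO as negative control. Viability read by CCK-8 (2 h, OD450) and IC50 derived from the concentration series; suspension lines seeded at 15000/10000 cells/well, MDA-MB lines at 3000/5000 cells/well.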

[8] = test system: MDA-MB-468 cells; experiment: Half inhibitory concentration (IC50) on BET-expressing tumor cells, CCK-8, MDA-MB-468; type: cell-based; conditions: Homo sapiens, 48/72 h, read-out: IC50 (nM)/MDA-MB-468 cell line
Procedure, shortened: as §3

[9] = test system: MDA-MB-453 cells; experiment: Half inhibitory concentration (IC50) on BET-expressing tumor cells, CCK-8, MDA-MB-453; type: cell-based, human; conditions: 48/72 h, read-out: IC50 (nM)/MDA-MB-453 cell line
Procedure, shortened: as §3

[10] = test system: MV-4-11 cells; experiment: Half inhibitory concentration (IC50) on BET-expressing tumor cells, CCK-8, MV-4-11; conditions: Homo sapiens, MV4-11, read-out: IC50 (nM)/MV-4-11 cell line, MV-4-11 cells, 48/72 h, CCK-8
[11] = test system: MM1S cells; experiment: Half inhibitory concentration (IC50) on BET-expressing tumor cells, CCK-8, MM1S; type: cell-based; conditions: Homo sapiens, MM1.S, 48/72 h, read-out: IC50 (nM)/MM1S cell line
Procedure, shortened: as §3

[12] = test system: SR cells; experiment: Half inhibitory concentration (IC50) on BET-expressing tumor cells, CCK-8, SR; type: cell-based; conditions: Homo sapiens, 48/72 h, read-out: IC50 (nM)/SR cell line
Method: BET-expressing cells MV-4-11 cells (human B granulocytic leukemia cells), MDA-MB-231 cells (human breast cancer cells), MDA-MB-468 cells (human breast cancer cells), MDA-MB-453 Cells (human breast cancer cells), MM1S cells (myeloma (immunoglobulin A lambda), B lymphoblasts) and SR cells (human large cell immunoblast lymphoma) were purchased from the American Type Culture Collection (ATCC).
The cells used in this present disclosure were cultured in a 37° C. incubator containing 5% CO2. The complete cell culture medium was RPMI 1640/IMDM/DMEM medium with 10% fetal bovine serum, and the final concentrations of penicillin and streptomycin were 100 U/mL, respectively. All cells were tested negative for mycoplasma with mycoplasma detection kit before the experiment.
Determination of the Half Inhibitory Concentration (IC50) of PROTAD Compounds on Tumor Cells
MV-411 cells, MM1S cells and SR cells were seeded in 100 μL IMDM/RPMI1640/DMEM complete medium at a density of 15000/10000 cells/well; MDA-MB-231 cells, MDA-MB-468 cells, and MDA-MB453 cells were seeded in 100 μL IMDM/RPMI1640/DMEM complete medium at a density of 3000/5000 cells/well, respectively. 100 μL of the inoculated cells were treated with 0.5 μL diluted PROTAD compounds of the present disclosure to be tested at 10 successively decreasing concentrations (starting at the highest concentration of 10 μM; 5-fold serial dilutions). After the cells were treated with the tested drugs 48/72 h, the cell viability was determined according to the CCK-8 reagent manual. The negative control was DMSO, and the positive control was a commercial inhibitor. After CCK-8 treatment for 2 h, the value of O.D.450 was measured using a microplate reader.

[13] = Homo sapiens, MDA-MB-453, MDA-MB-453 cells

CC(=O)c1c(C)c2cnc(Nc3ccc(N4CCN(C(=O)CCCCSc5cccc6c5CN(C5CCC(=O)NC5=O)C6=O)CC4)cn3)nc2n(C2CCCC2)c1=O (stereo not drawn) [SIAIS184092, 3-(4-((5-(4-(6-((6-acetyl-8-cyclopentyl-5-methyl-7-oxo-7,8-dihydropyrido[2,3-d]pyrimidin-2-yl)amino)pyridin-3-yl)piperazin-1-yl)-5-oxopentyl)thio)-1-oxoisoindolin-2-yl)piperidine-2,6-dione]
DC50 [1]: < 1 nM
DC50 [2]: < 0.1 nM

Cc1sc2c(c1C)C(c1ccc(Cl)cc1)=N[C@@H](CC(=O)NCCCCCOc1cccc3c1CN(C1CCC(=O)NC1=O)C3=O)c1nnc(C)n1-2 (stereo partly drawn) [SIAIS271066, 2-((S)-4-(4-chlorophenyl)-2,3,9-trimethyl-6H-thieno[3,2-f][1,2,4]triazolo[4,3-a][1,4]diazepin-6-yl)-N-(5-((2-(2,6-dioxopiperidin-3-yl)-1-oxoisoindolin-4-yl)oxy)pentyl)acetamide]
degradation of BRD2 protein (Western-blot) [3]: significantly weaker ability to degrade BRD2 and BRD4 proteins
ability to degrade BRD2 protein (Western-blot, in words) [4]: significantly weaker ability to degrade
ability to degrade BRD4 protein (Western-blot, in words) [5]: significantly weaker ability to degrade
degradation of BRD4 protein (Western-blot) [6]: significantly weaker ability to degrade BRD2 and BRD4 proteins

CC(=O)c1c(C)c2cnc(Nc3ccc(N4CCN(C(=O)CCCCCCSc5cccc6c5C(=O)N(C5CCC(=O)NC5=O)C6=O)CC4)cn3)nc2n(C2CCCC2)c1=O (stereo not drawn) [SIAIS184090, 4-((7-(4-(6-((6-acetyl-8-cyclopentyl-5-methyl-7-oxo-7,8-dihydropyrido[2,3-d]pyrimidin-2-yl)amino)pyridin-3-yl)piperazin-1-yl)-7-oxoheptyl)thio)-2-(2,6-dioxopiperidin-3-yl)isoindoline-1,3-dione]
DC50 [1]: 1 to 10 nM
DC50 [2]: 1 to 10 nM

Cc1sc2c(c1C)C(c1ccc(Cl)cc1)=N[C@@H](CC(=O)NCCCCCSc1cccc3c1CN(C1CCC(=O)NC1=O)C3=O)c1nnc(C)n1-2 (stereo partly drawn) [SIAIS171142, 2-((S)-4-(4-chlorophenyl)-2,3,9-trimethyl-6H-thieno[3,2-f][1,2,4]triazolo[4,3-a][1,4]diazepin-6-yl)-N-(5-((2-(2,6-dioxopiperidin-3-yl)-1-oxoisoindolin-4-yl)thio)pentyl)acetamide]
IC50 [7]: 17.7 ± 7.6 nM
IC50 [8]: 6.1 ± 0.4 nM
IC50 [9, 13]: 37.4 nM
IC50 ([9]; MDA-MB-453 cells): 37.1 nM
IC50 [10]: 0.08 ± 0.03 nM
IC50 [11]: 0.31 nM
IC50 [12]: 2.42 nM

Cc1sc2c(c1C)C(c1ccc(Cl)cc1)=N[C@@H](CC(=O)NCCCCCCSc1cccc3c1CN(C1CCC(=O)NC1=O)C3=O)c1nnc(C)n1-2 (stereo partly drawn) [SIAIS171143, 2-((S)-4-(4-chlorophenyl)-2,3,9-trimethyl-6H-thieno[3,2-f][1,2,4]triazolo[4,3-a][1,4]diazepin-6-yl)-N-(6-((2-(2,6-dioxopiperidin-3-yl)-1-oxoisoindolin-4-yl)thio)hexyl)acetamide]
IC50 [7]: 313 ± 309 nM
IC50 [8]: 376 ± 55 nM
IC50 [10]: 0.3 nM
IC50 [11]: 0.32 nM
IC50 [12]: 1.48 nM

Cc1sc2c(c1C)C(c1ccc(Cl)cc1)=N[C@@H](CC(=O)NCCCCSc1cccc3c1CN(C1CCC(=O)NC1=O)C3=O)c1nnc(C)n1-2 (stereo partly drawn) [SIAIS171141, 2-((S)-4-(4-chlorophenyl)-2,3,9-trimethyl-6H-thieno[3,2-f][1,2,4]triazolo[4,3-a][1,4]diazepin-6-yl)-N-(4-((2-(2,6-dioxopiperidin-3-yl)-1-oxoisoindolin-4-yl)thio)butyl)acetamide]
IC50 [7]: 19.9 ± 9.2 nM
IC50 [8]: 10 ± 2 nM
IC50 [9, 13]: 112 nM
IC50 ([9]; MDA-MB-453 cells): 98 nM
IC50 [10]: 0.25 ± 0.2 nM
IC50 [11]: 0.24 nM
IC50 [12]: 3.91 nM

CC(=O)c1c(C)c2cnc(Nc3ccc(N4CCN(C(=O)COCCSc5cccc6c5C(=O)N(C5CCC(=O)NC5=O)C6=O)CC4)cn3)nc2n(C2CCCC2)c1=O (stereo not drawn) [SIAIS184091, 4-((2-(2-(4-(6-((6-acetyl-8-cyclopentyl-5-methyl-7-oxo-7,8-dihydropyrido[2,3-d]pyrimidin-2-yl)amino)pyridin-3-yl)piperazin-1-yl)-2-oxoethoxy)ethyl)thio)-2-(2,6-dioxopiperidin-3-yl)isoindoline-1,3-dione]
DC50 [1]: 1 to 10 nM
DC50 [2]: 1 to 10 nM

Cc1sc2c(c1C)C(c1ccc(Cl)cc1)=N[C@@H](CC(=O)NCCCCCNc1cccc3c1CN(C1CCC(=O)NC1=O)C3=O)c1nnc(C)n1-2 (stereo partly drawn) [SIAIS213110, 2-((S)-4-(4-chlorophenyl)-2,3,9-trimethyl-6H-thieno[3,2-f][1,2,4]triazolo[4,3-a][1,4]diazepin-6-yl)-N-(5-((2-(2,6-dioxopiperidin-3-yl)-1-oxoisoindolin-4-yl)amino)pentyl)acetamide]
degradation of BRD2 protein (Western-blot) [3]: significantly weaker ability to degrade BRD2 and BRD4 proteins
ability to degrade BRD2 protein (Western-blot, in words) [4]: significantly weaker ability to degrade
ability to degrade BRD4 protein (Western-blot, in words) [5]: significantly weaker ability to degrade
degradation of BRD4 protein (Western-blot) [6]: significantly weaker ability to degrade BRD2 and BRD4 proteins

Cc1sc2c(c1C)C(c1ccc(Cl)cc1)=N[C@@H](CC(=O)NCCCCCSc1cccc3c1C(=O)N(C1CCC(=O)NC1=O)C3=O)c1nnc(C)n1-2 (stereo partly drawn) [SIAIS171038, 2-((S)-4-(4-chlorophenyl)-2,3,9-trimethyl-6H-thieno[3,2-f][1,2,4]triazolo[4,3-a][1,4]diazepin-6-yl)-N-(5-((2-(2,6-dioxopiperidin-3-yl)-1,3-dioxoisoindolin-4-yl)thio)pentyl)acetamide]
IC50 [7]: 182 ± 89 nM
IC50 [8]: 61 ± 8 nM
IC50 [9, 13]: 135 nM
IC50 ([9]; MDA-MB-453 cells): 230 nM
IC50 [10]: 6.2 ± 3 nM
DC50 ([3]; Western-blot, read-out: DC50 (nM)/MV-4-11 cell line BRD2 degradation): < 0.4 nM
IC50 [11]: 7.77 nM

CC(=O)c1c(C)c2cnc(Nc3ccc(N4CCN(C(=O)CSc5cccc6c5C(=O)N(C5CCC(=O)NC5=O)C6=O)CC4)cn3)nc2n(C2CCCC2)c1=O (stereo not drawn) [SIAIS151046, 4-((2-(4-(6-((6-acetyl-8-cyclopentyl-5-methyl-7-oxo-7,8-dihydropyrido[2,3-d]pyrimidin-2-yl)amino)pyridin-3-yl)piperazin-1-yl)-2-oxoethyl)thio)-2-(2,6-dioxopiperidin-3-yl)isoindoline-1,3-dione]
DC50 [1]: 1 to 10 nM
DC50 [2]: 1 to 10 nM
